In paper PMC3446905, “Puerarin Suppresses Proliferation of Endometriotic Stromal Cells Partly via the MAPK Signaling Pathway Induced by 17ß-estradiol-BSA” (PLoS ONE, 2012) one finds IC50 data, which are given here for one compound.

Each structure is given as a SMILES string.

This test has as its system T1, estrogen receptors (ERs; subtype not resolved).
T1 construct: endogenous receptors in whole endometriotic stromal cells (ESCs)
As to the kind of experiment: whole-cell competitive radioligand binding against [3H]-E2. The format is cell-based, Homo sapiens. How it is done:
whole-cell competitive radioligand binding against [3H]-E2 on estrogen receptors (ERs; subtype not resolved) | puerarin also competed against the specific binding of [^3H]-E2 to ERs, and the IC50 of puerarin was determined

One may read the IC50 as the concentration that inhibits the measured activity by half. A higher IC50 goes with weaker potency.

For `O=c1c(-c2ccc(O)cc2)coc2c([C@@H]3O[C@H](CO)[C@@H](O)[C@H](O)[C@H]3O)c(O)ccc12` [puerarin], the IC50 is 870 nM. That is a sub-micromolar value.
